Measured values as given in the supplement of paper PMC11061612.

Experiments:
Experiment in all cases: Bliss excess, mean over the matrix (fraction); higher = more synergy
[1] = test system: TGBC24TKB (Biliary Tract Carcinoma)
Procedure, shortened: (§1)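 Bliss excess equals the observed combination effect minus the expected value EA + EB − EA·EB, where EA and EB are the effects of each agent alone. Combination Emax is the second-highest inhibition within the matrix. Inhibition was scaled from CellTiter-Glo 2.0 luminescence, with 0 set by vehicle wells and 1 by blank wells, after 72 hours of two-drug dosing of cells plated in 1536-well plates.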

[2] = test system: NALM-6 (B-Lymphoblastic Leukemia)
Procedure, shortened: as §1

SK-N-FI (Neuroblastoma) = test system: SK-N-FI (Neuroblastoma)
Procedure, shortened: as §1

[3] = test system: SNU-C5 (Colorectal Carcinoma)
Procedure, shortened: as §1

[4] = test system: MFH-ino (Other Solid Carcinomas)
Procedure, shortened: as §1

[5] = test system: NCI-H1781 (Lung Adenocarcinoma)
Procedure, shortened: as §1

NCI-H2369 (Mesothelioma) = test system: NCI-H2369 (Mesothelioma)
Procedure, shortened: as §1

[6] = test system: SW1990 (Pancreatic Carcinoma)
Procedure, shortened: as §1

[7] = test system: NCI-H1793 (Lung Adenocarcinoma)
Procedure, shortened: as §1

CAL-78 (Chondrosarcoma) = test system: CAL-78 (Chondrosarcoma)
Procedure, shortened: as §1

[8] = test system: MDA-MB-231 (Breast Carcinoma)
Procedure, shortened: as §1

[9] = test system: EM-2 (Chronic Myelogenous Leukemia)
Procedure, shortened: as §1

[10] = test system: CTV-1 (T-Lymphoblastic Leukemia)
Procedure, shortened: as §1

[11] = test system: HPAC (Pancreatic Carcinoma)
Procedure, shortened: as §1

[12] = test system: DOV13 (Ovarian Carcinoma)
Procedure, shortened: as §1

[13] = test system: JiyoyeP-2003 (Burkitt's Lymphoma)
Procedure, shortened: as §1

[14] = test system: LU-99A (Non-Small Cell Lung Carcinoma)
Procedure, shortened: as §1

IGR-1 (Melanoma) = test system: IGR-1 (Melanoma)
Procedure, shortened: as §1

[15] = test system: G-292-Clone-A141B1 (Osteosarcoma)
Procedure, shortened: as §1

[16] = test system: TE-5 (Esophageal Squamous Cell Carcinoma)
Procedure, shortened: as §1

Row | SMILES | Bliss excess [1] | Bliss excess [2] | Bliss excess (SK-N-FI (Neuroblastoma)) | Bliss excess [3] | Bliss excess [4] | Bliss excess [5] | Bliss excess (NCI-H2369 (Mesothelioma)) | Bliss excess [6] | Bliss excess [7] | Bliss excess (CAL-78 (Chondrosarcoma)) | Bliss excess [8] | Bliss excess [9] | Bliss excess [10] | Bliss excess [11] | Bliss excess [12] | Bliss excess [13] | Bliss excess [14] | Bliss excess (IGR-1 (Melanoma)) | Bliss excess [15] | Bliss excess [16]
1 | Cc1c2c(nn1C)CSCc1cc(n(C)n1)CSc1cc(c3ccccc3c1)OCCCc1c(C(=O)O)n(C)c3c-2c(Cl)ccc13 [AZD5991] + Cn1cnc2c(F)c(Nc3ccc(Br)cc3Cl)c(C(=O)NOCCO)cc21 [Selumetinib] (first compound max 1 µM, 7x7, partner max 3 µM) | 0.0488 | 0.0165 | -0.0042 | -0.0107 | -0.0311 | -0.0165 | 0.0081 | -0.0222 | 0.0133 | -0.0288 | 0.0135 | -0.0053 | 0.036 | 0.005 | 0.0216 | 0.0039 | -0.0363 | 0.0239 | -0.0558 | -0.0146
2 | COc1cccc(OCCCN)c1-c1cc(Nc2cnc(C#N)cn2)n[nH]1 [Prexasertib] + CCc1c2c(nc3ccc(O)cc13)-c1cc3c(c(=O)n1C2)COC(=O)[C@]3(O)CC [SN-38] (first compound max 1 µM, 7x7, partner max 0.3 µM) | 0.0191 | -0.0555 | 0.0093 | -0.0375 | -0.0321 | -0.0105 | 0.0148 | -0.0551 | -0.0209 | -0.0348 | 0.0723 | -0.0352 | -0.0461 | 0.0446 | -0.0444 | 0.0073 | -0.0593 | 0.0316 | 0.0081 | -0.0476
3 | CC(=O)c1c(C)c2cnc(Nc3ccc(N4CCNCC4)cn3)nc2n(C2CCCC2)c1=O [Palbociclib] + Cc1c2c(nn1C)CSCc1cc(n(C)n1)CSc1cc(c3ccccc3c1)OCCCc1c(C(=O)O)n(C)c3c-2c(Cl)ccc13 [AZD5991] (first compound max 10 µM, 7x7, partner max 1 µM) | 0.0597 | 0.0147 | -0.0412 | -0.0377 | -0.042 | -0.0608 | -0.0593 | -0.0427 | -0.0299 | -0.0395 | -0.0424 | -0.021 | -0.0096 | -0.0423 | -0.0567 | -0.0436 | -0.046 | 0.0047 | -0.0371 | -0.0284
4 | NC1(C(=O)N[C@@H](CCO)c2ccc(Cl)cc2)CCN(c2ncnc3[nH]ccc23)CC1 [Capivasertib] + CC(C)n1c(=O)n(C)c2cnc3cc(F)c(-c4ccc(OCCCN5CCCCC5)nc4)cc3c21 [AZD1390] (first compound max 10 µM, 7x7, partner max 0.3 µM) | -0.0261 | -0.0863 | -0.0588 | -0.052 | -0.0771 | -0.0696 | -0.0104 | -0.05 | -0.0745 | -0.0382 | -0.102 | -0.0446 | -0.0908 | -0.0699 | -0.0407 | -0.024 | -0.0962 | -0.0607 | -0.0453 | -0.0254
5 | CN(C)CCCOc1ccc(-c2ccc3ncc4c(c3c2)n(C2CCOCC2)c(=O)n4C)cn1 [AZD0156] + O=C(c1cc(Cc2n[nH]c(=O)c3ccccc23)ccc1F)N1CCN(C(=O)C2CC2)CC1 [Olaparib] (first compound max 3 µM, partner max 3 µM) | 0.0104 | 0.173 | -0.0123 | 0.0621 | -0.061 | 0.0077 | -0.0455 | -0.0285 | 0.0074 | 0.0042 | 0.0221 | 0.0753 | 0.0654 | 0.0152 | 0.0258 | 0.007 | -0.0145 | -0.0006 | -0.0003 | -0.0241
6 | Cc1c2c(nn1C)CSCc1cc(n(C)n1)CSc1cc(c3ccccc3c1)OCCCc1c(C(=O)O)n(C)c3c-2c(Cl)ccc13 [AZD5991] + C[C@@H](Nc1cc(F)cc(F)c1)c1cc(C(=O)N(C)C)cc2c(=O)cc(N3CCOCC3)oc12 [AZD8186] (first compound max 1 µM, 7x7, partner max 3 µM) | 0.0027 | 0.0341 | -0.024 | 0.0464 | -0.0452 | 0.0182 | -0.004 | -0.0948 | -0.0254 | -0.0799 | -0.015 | -0.0528 | -0.0144 | -0.0297 | 0.0294 | 0.0635 | -0.0534 | -0.0031 | -0.013 | -0.0172
7 | CN(CCO)CC[C@H](CSc1ccccc1)Nc1ccc(S(=O)(=O)NC(=O)c2ccc(N3CCC([C@@H](O)c4ccccc4-c4ccc(Cl)cc4)CC3)cc2)cc1S(=O)(=O)C(F)(F)F [AZD4320] + C=CCn1c(=O)c2cnc(Nc3ccc(N4CCN(C)CC4)cc3)nc2n1-c1cccc(C(C)(C)O)n1 [AZD1775] (first compound max 1 µM, partner max 1 µM) | -0.0323 | 0.0725 | -0.0331 | -0.0062 | -0.0288 | -0.003 | -0.0413 | 0.0307 | -0.0061 | 0.073 | 0.0551 | -0.0381 | -0.0115 | -0.0048 | 0.0352 | 0.0154 | 0.0007 | 0.146 | 0.0335 | 0.0773
8 | Cc1c2c(nn1C)CSCc1cc(n(C)n1)CSc1cc(c3ccccc3c1)OCCCc1c(C(=O)O)n(C)c3c-2c(Cl)ccc13 [AZD5991] + CN(C)CCCOc1ccc(-c2ccc3ncc4c(c3c2)n(C2CCOCC2)c(=O)n4C)cn1 [AZD0156] (first compound max 1 µM, 7x7, partner max 1 µM) | -0.0044 | 0.0032 | -0.0036 | 0.0157 | -0.0286 | -0.0155 | 0.0002 | 0.0159 | 0.0332 | -0.0212 | -0.0133 | -0.0436 | 0.0012 | 0.0384 | -0.0235 | -0.0359 | -0.0175 | -0.0219 | -0.025 | -0.0081
9 | COc1nnc2ccc(N3CCC(c4ccc(OCCN5CCN(C)C(=O)[C@H]5C)cc4)CC3)nn12 [AZD5153] + CC1(C)CCC(CN2CCN(c3ccc(C(=O)NS(=O)(=O)c4ccc(NCC5CCOCC5)c([N+](=O)[O-])c4)c(Oc4cnc5[nH]ccc5c4)c3)CC2)=C(c2ccc(Cl)cc2)C1 [Venetoclax] (first compound max 1 µM, 7x7, partner max 1 µM) | -0.0456 | -0.0678 | -0.0581 | -0.077 | -0.0608 | -0.0599 | -0.0641 | -0.0448 | -0.0104 | -0.0999 | -0.0755 | -0.0384 | -0.0322 | -0.0507 | -0.0751 | -0.0302 | -0.0853 | -0.0221 | -0.0571 | -0.0087
10 | Cc1cc2ncnn2cc1Nc1ncc2c(n1)n(C1CCOCC1)c(=O)n2C [AZD7648] + C[C@@H]1COCCN1C2=NC(=NC(=C2)C3(CC3)[S@](=N)(=O)C)C4=C5C=CNC5=NC=C4 [AZD6738] (first compound max 10 µM, 7x7, partner max 10 µM) | 0.0117 | -0.0561 | -0.005 | 0.0455 | -0.0002 | 0.103 | 0.008 | 0.0049 | -0.0059 | 0.0344 | 0.037 | -0.0013 | -0.0024 | 0.0187 | -0.0039 | 0.0127 | 0.0077 | 0.0074 | 0.0274 | -0.0093
11 | CN(C)CCCOc1ccc(-c2ccc3ncc4c(c3c2)n(C2CCOCC2)c(=O)n4C)cn1 [AZD0156] + CCN(CCO)CCCOc1ccc2c(Nc3cc(CC(=O)Nc4cccc(F)c4)[nH]n3)ncnc2c1 [AZD2811] (first compound max 1 µM, 7x7, partner max 1 µM) | -0.0009 | -0.0755 | -0.0144 | 0.0043 | -0.0453 | 0.0374 | -0.0392 | -0.0536 | -0.0309 | 0.006 | -0.0296 | -0.0445 | 0.0458 | 0.012 | 0.0385 | 0.0832 | -0.0341 | -0.0235 | -0.0669 | -0.0536
12 | COc1nnc2ccc(N3CCC(c4ccc(OCCN5CCN(C)C(=O)[C@H]5C)cc4)CC3)nn12 [AZD5153] + CCN(CCO)CCCOc1ccc2c(Nc3cc(CC(=O)Nc4cccc(F)c4)[nH]n3)ncnc2c1 [AZD2811] (first compound max 1 µM, 7x7, partner max 1 µM) | -0.0349 | -0.0683 | -0.0579 | -0.0541 | -0.0811 | -0.129 | -0.0563 | -0.0477 | -0.0381 | -0.0564 | -0.0353 | -0.001 | 0.0988 | -0.0283 | -0.0908 | 0.0351 | -0.0244 | 0.0249 | -0.0263 | -0.0124
13 | CC1(C)CCC(CN2CCN(c3ccc(C(=O)NS(=O)(=O)c4ccc(NCC5CCOCC5)c([N+](=O)[O-])c4)c(Oc4cnc5[nH]ccc5c4)c3)CC2)=C(c2ccc(Cl)cc2)C1 [Venetoclax] + C[C@@H]1COCCN1C2=NC(=NC(=C2)C3(CC3)[S@](=N)(=O)C)C4=C5C=CNC5=NC=C4 [AZD6738] (first compound max 1 µM, 7x7, partner max 10 µM) | -0.0188 | 0.0565 | 0.0009 | -0.0289 | -0.0926 | 0.0284 | -0.0247 | -0.0556 | 0.0073 | 0.0138 | -0.0312 | -0.0272 | -0.0067 | -0.0736 | -0.001 | 0.0139 | -0.0278 | 0.0165 | -0.0438 | -0.0623
14 | Cn1cnc2c(F)c(Nc3ccc(Br)cc3Cl)c(C(=O)NOCCO)cc21 [Selumetinib] + CCN(CCO)CCCOc1ccc2c(Nc3cc(CC(=O)Nc4cccc(F)c4)[nH]n3)ncnc2c1 [AZD2811] (first compound max 10 µM, 7x7, partner max 1 µM) | 0.003 | 0.0318 | 0.0239 | 0.038 | -0.045 | 0.0045 | -0.0517 | -0.0292 | -0.0302 | -0.0522 | 0.0107 | -0.0526 | 0.0436 | 0.0816 | -0.0915 | -0.0053 | -0.0383 | -0.007 | -0.0367 | -0.0191
